Tests used:
[1] = NOD mouse model of type I diabetes; cited from earlier work
[2] = in vivo; cited from earlier work
[3] = in vivo; cited from earlier work; remark: listed apart in the source
JAK2 = target: T1, JAK2 (Homo sapiens, UniProt O60674); assay: Kinobeads assay, JAK2 (competition binding in cell lysate, dot blot detection); settings: mixed Molt4/Ramos lysate
T1 construct: endogenous in cells; host or cells: Molt4 (ATCC CRL-1582) and Ramos (ATCC CRL-1596) cell lysate; mixed Molt4/Ramos lysate 1:2
How it was run: (§1)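 Competition binding of compound against immobilized aminopyrido-pyrimidine affinity beads in mixed Molt4/Ramos lysate (1:2, 10 mg/mL protein), 3 h in cold room. Bead-bound JAK2 or JAK3 eluted and quantified by antibody dot blot with infrared detection; IC50 from 9-step 1:3 dose-response curves.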

JAK3 = target: T2, JAK3 (Homo sapiens, UniProt P52333); assay: Kinobeads assay, JAK3 (competition binding in cell lysate, dot blot detection); settings: mixed Molt4/Ramos lysate
T2 construct: endogenous in cells; host or cells: Molt4 (ATCC CRL-1582) and Ramos (ATCC CRL-1596) cell lysate; mixed Molt4/Ramos lysate 1:2
T2 sequence (P52333 1-1124): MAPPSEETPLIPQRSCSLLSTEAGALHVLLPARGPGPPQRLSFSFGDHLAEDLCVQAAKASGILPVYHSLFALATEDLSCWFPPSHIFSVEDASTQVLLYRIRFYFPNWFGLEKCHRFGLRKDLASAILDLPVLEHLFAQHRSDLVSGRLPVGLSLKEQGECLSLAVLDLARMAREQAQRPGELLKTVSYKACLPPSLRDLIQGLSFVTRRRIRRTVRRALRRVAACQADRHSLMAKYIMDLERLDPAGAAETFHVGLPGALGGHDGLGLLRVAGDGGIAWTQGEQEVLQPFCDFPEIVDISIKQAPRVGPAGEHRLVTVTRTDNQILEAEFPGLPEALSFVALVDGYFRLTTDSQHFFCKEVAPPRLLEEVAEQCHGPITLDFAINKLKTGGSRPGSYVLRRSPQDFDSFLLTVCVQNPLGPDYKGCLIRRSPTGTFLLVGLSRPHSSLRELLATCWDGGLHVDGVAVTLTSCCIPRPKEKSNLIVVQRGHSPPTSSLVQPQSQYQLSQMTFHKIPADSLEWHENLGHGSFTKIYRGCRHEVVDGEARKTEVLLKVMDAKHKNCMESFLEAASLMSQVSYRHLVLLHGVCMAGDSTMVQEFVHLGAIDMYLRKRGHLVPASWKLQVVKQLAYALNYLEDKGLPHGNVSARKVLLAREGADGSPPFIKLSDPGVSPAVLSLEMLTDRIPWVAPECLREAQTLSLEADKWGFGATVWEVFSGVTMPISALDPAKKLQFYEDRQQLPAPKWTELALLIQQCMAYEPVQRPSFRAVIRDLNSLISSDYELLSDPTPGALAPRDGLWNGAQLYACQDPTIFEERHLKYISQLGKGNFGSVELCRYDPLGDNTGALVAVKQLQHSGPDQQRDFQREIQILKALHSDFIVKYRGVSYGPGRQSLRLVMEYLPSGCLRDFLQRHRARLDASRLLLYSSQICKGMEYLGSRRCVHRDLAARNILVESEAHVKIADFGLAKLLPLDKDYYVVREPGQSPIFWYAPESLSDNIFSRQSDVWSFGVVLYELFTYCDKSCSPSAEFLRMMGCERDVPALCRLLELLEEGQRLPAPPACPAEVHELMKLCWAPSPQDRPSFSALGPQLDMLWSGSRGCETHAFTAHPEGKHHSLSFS
How it was run: as §1

T1 sequence (O60674 whole entry): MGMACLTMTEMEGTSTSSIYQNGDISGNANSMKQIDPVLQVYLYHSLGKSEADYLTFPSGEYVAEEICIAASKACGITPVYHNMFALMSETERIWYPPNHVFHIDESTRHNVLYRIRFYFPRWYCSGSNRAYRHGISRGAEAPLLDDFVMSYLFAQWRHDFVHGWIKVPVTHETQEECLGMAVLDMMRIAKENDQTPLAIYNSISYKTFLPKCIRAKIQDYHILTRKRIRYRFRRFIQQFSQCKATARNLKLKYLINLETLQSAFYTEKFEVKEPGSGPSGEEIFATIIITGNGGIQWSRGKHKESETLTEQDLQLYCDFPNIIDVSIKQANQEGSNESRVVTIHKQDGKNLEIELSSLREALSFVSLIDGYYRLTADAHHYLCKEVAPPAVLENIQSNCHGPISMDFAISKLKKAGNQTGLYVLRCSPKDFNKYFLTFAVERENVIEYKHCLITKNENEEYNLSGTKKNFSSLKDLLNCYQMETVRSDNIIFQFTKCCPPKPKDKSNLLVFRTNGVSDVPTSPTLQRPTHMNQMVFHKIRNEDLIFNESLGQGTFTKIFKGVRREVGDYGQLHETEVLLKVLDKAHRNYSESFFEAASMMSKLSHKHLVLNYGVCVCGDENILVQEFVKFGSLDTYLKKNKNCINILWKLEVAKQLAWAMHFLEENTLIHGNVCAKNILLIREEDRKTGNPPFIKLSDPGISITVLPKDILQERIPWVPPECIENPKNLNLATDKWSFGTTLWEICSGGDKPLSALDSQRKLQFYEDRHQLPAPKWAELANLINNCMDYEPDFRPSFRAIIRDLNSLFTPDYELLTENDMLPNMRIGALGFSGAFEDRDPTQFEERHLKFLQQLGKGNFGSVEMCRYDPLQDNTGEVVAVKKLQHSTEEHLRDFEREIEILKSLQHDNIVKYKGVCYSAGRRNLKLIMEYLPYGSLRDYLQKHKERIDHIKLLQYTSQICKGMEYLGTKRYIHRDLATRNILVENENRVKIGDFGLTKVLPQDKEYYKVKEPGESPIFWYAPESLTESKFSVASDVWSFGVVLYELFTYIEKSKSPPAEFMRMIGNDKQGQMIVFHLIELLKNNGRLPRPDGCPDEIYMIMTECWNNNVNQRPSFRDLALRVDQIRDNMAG

Row | SMILES | IC50 (JAK2) [nM] | IC50 (JAK3) [nM] | spontaneous autoimmune diabetes development [1] | severity of GVHD [2] | efficacy in an animal model of organ transplantation [3]
1 | COc1cc2ncnc(Nc3ccc(O)cc3)c2cc1OC [JANEX-1] |  |  | prevent spontaneous autoimmune diabetes development | attenuate the severity of GVHD | 
2 | C[C@@H]1CCN(C(=O)CC#N)C[C@@H]1N(C)c1ncnc2[nH]ccc12 [CP-690,550] |  |  |  |  | show efficacy
3 | CC(C)S(=O)(=O)N1CCCC(Cn2ncc3cnc(Nc4cnn(C)c4)nc32)C1 (stereo not shown) [Example 32, 1-((1-(isopropylsulfonyl)piperidin-3-yl)methyl)-N-(1-methyl-1H-pyrazol-4-yl)-1H-pyrazolo[3,4-d]pyrimidin-6-amine] | 1000 to 10000 | < 100 |  |  | 
4 | CC(=O)NC1CCC(n2ncc3cnc(Nc4cnn(C)c4)nc32)CC1 (stereo not shown) [Example 22, N-(4-(6-((1-methyl-1H-pyrazol-4-yl)amino)-1H-pyrazolo[3,4-d]pyrimidin-1-yl)cyclohexyl)acetamide] | 1000 to 10000 | 100 to 1000 |  |  | 
5 | C[C@H]1CCCC[C@@H]1n1ncc2cnc(Nc3cnn(CCO)c3)nc21 (racemic) [Example 50, Rac-trans-2-(4-((1-(2-methylcyclohexyl)-1H-pyrazolo[3,4-d]pyrimidin-6-yl)amino)-1H-pyrazol-1-yl)ethanol] | 1000 to 10000 | < 100 |  |  | 
6 | CC1CCCC(n2ncc3cnc(Nc4cnn(C)c4)nc32)C1 (stereo not shown) [Example 13, N-(1-methyl-1H-pyrazol-4-yl)-1-(3-methylcyclohexyl)-1H-pyrazolo[3,4-d]pyrimidin-6-amine] | > 10000 | 100 to 1000 |  |  | 
7 | CS(=O)(=O)N1CCCC(Cn2ncc3cnc(Nc4cnn(CCO)c4)nc32)C1 (stereo not shown) [Example 39, 2-(4-((1-((1-(methylsulfonyl)piperidin-3-yl)methyl)-1H-pyrazolo[3,4-d]pyrimidin-6-yl)amino)-1H-pyrazol-1-yl)ethanol] | 1000 to 10000 | < 100 |  |  | 
8 | CN1CCCC(Cn2ncc3cnc(Nc4cnn(C)c4)nc32)C1 (stereo not shown) [Example 6, N-(1-methyl-1H-pyrazol-4-yl)-1-((1-methylpiperidin-3-yl)methyl)-1H-pyrazolo[3,4-d]pyrimidin-6-amine] | 1000 to 10000 | < 100 |  |  | 
9 | C[C@H]1CCCC[C@@H]1n1ncc2cnc(Nc3cnn(C)c3)nc21 (racemic) [Example 7, Rac-trans-N-(1-methyl-1H-pyrazol-4-yl)-1-(2-methylcyclohexyl)-1H-pyrazolo[3,4-d]pyrimidin-6-amine] | 1000 to 10000 | < 100 |  |  | 
10 | CC1CCCC1n1ncc2cnc(Nc3cnn(C)c3)nc21 (stereo not shown) [Example 14, N-(1-Methyl-1H-pyrazol-4-yl)-1-(2-methylcyclopentyl)-1H-pyrazolo[3,4-d]pyrimidin-6-amine] | > 10000 | 100 to 1000 |  |  | 
11 | Cn1cc(Nc2ncc3cnn(C4CCCCCC4)c3n2)cn1 [Example 20, 1-Cycloheptyl-N-(1-methyl-1H-pyrazol-4-yl)-1H-pyrazolo[3,4-d]pyrimidin-6-amine] | 1000 to 10000 | < 100 |  |  | 

Continued, in another order:

Row | IC50 (JAK2) [nM] | IC50 (JAK3) [nM] | SMILES | spontaneous autoimmune diabetes development [1] | severity of GVHD [2] | efficacy in an animal model of organ transplantation [3]
12 | > 10000 | 100 to 1000 | CS(=O)(=O)CCC(=O)N1CCCC(Cn2ncc3cnc(Nc4cnn(CC(F)F)c4)nc32)C1 (stereo not shown) [Example 59, 1-(3-((6-((1-(2,2-difluoroethyl)-1H-pyrazol-4-yl)amino)-1H-pyrazolo[3,4-d]pyrimidin-1-yl)methyl)piperidin-1-yl)-3-(methylsulfonyl)propan-1-one] |  |  | 
13 | > 10000 | < 100 | N#CCCN1CCCC(Cn2ncc3cnc(Nc4cnn(CC(F)F)c4)nc32)C1 (stereo not shown) [Example 57, 3-(3-((6-((1-(2,2-difluoroethyl)-1H-pyrazol-4-yl)amino)-1H-pyrazolo[3,4-d]pyrimidin-1-yl)methyl)piperidin-1-yl)propanenitrile] |  |  | 
14 | > 10000 | 100 to 1000 | CCOC(=O)N1CCCC(Cn2ncc3cnc(Nc4cnn(C)c4)nc32)C1 (stereo not shown) [Example 36, ethyl 3-((6-((1-methyl-1H-pyrazol-4-yl)amino)-1H-pyrazolo[3,4-d]pyrimidin-1-yl)methyl)piperidine-1-carboxylate] |  |  | 
15 | 1000 to 10000 | < 100 | Cn1cc(Nc2ncc3cnn(CC4CCCN(C(=O)NC5CC5)C4)c3n2)cn1 (stereo not shown) [Example 52, N-cyclopropyl-3-((6-((1-methyl-1H-pyrazol-4-yl)amino)-1H-pyrazolo[3,4-d]pyrimidin-1-yl)methyl)piperidine-1-carboxamide] |  |  | 
16 | 1000 to 10000 | < 100 | Cn1cc(Nc2ncc3cnn(CC4CCCCC4)c3n2)cn1 [Example 16, 1-(Cyclohexylmethyl)-N-(1-methyl-M-pyrazol-4-yl)-1H-pyrazolo[3,4-d]pyrimidin-6-amine] |  |  | 

— patent US20130131043A1, “PYRAZOLE COMPOUNDS AS JAK INHIBITORS” (priority 2010, published 2013)
